This test deals with WT STING (Homo sapiens, UniProt Q86WV6, H232R). Briefly: Digitonin assay using 293T wtSTING-FL reporter cells. The arrangement: host or cells: 293T (ATCC CRL-3216), stably transfected; also carries the 4xISRE firefly luciferase reporter. Conditions: 293T wtSTING-FL cells, digitonin buffer 30 min, then 5 h, ISRE firefly luciferase reporter. The class given is cell-based. From the text: Two complementary oligonucleotides of the sequence […] […] […] […] (SEQ ID NO: 1) and […] […] (SEQ ID NO:2) containing four interferon-sensitive response elements (ISRE) were synthesized by Sigma Aldrich (Czech Republic, Prague). The oligonucleotides were mixed in equal molar amounts, hybridized, and cleaved by restriction endonucleases HindIII (cat. #. R^0104S, NEB, Ipswich, USA) and BglII (cat. # R^0144S, NEB, Ipswich, USA). Ultimately, they were ligated into plasmid pGL4.27 (cat. # E6651, Promega, Madison, USA) linearized with the same enzymes. As a result, the sequence with four ISRE sites was placed upstream of the minimum promoter of firefly luciferase reporter gene.
293T cells (cat. # CRL-3216, ATCC, Manassas, USA) were seeded a day before transfection at density 125,000 cells per cm^2 onto poly-D-lysine (cat. # P6407, Sigma Aldrich, Czech Republic) coated six well plates in antibiotic free DMEM with high glucose (cat. # D5796, Sigma Aldrich, Czech Republic) supplemented with 10% heat inactivated FBS (cat. # S1520, Biowest, Riverside, USA). On the day of transfection, 2.5 μg of the plasmid pUNO1-hSTING-WT (cat. # punol-hstingwt, InvivoGen, San Diego, USA,) encoding human wild type STING (WT STING) was diluted in 125 μL OptiMEM medium (cat. #31985062, ThermoFisher, Waltham, USA) and mixed with 125 μL of the same medium containing 12.5 μL of Lipofectamine 2000 (cat. #11668019, ThermoFisher, Waltham, USA). After 5 minutes incubation at room temperature (RT), 250 μL of the mixture was added dropwise to the cells in one well. Cells were incubated 36 hours at 37° C. with 5% CO2, and then detached with 0.05% Trypsin and 0.22 g/L EDTA (both cat. # L0941, Biowest, Riverside, USA).
Transfected cells were seeded onto poly-D-lysine coated six well plates at density 50,000 cells per 1 cm^2 in DMEM medium with high glucose containing 10% heat inactivated FBS, […] blasticidin (cat. # ant-bl-05, InvivoGen, San Diego, USA), 0.06 mg/ml Penicillin G and 0.1 mg/ml Streptomycin Sulfate (both cat. #. L0018, Biowest, Riverside, USA). The medium was replenished every 3-4 days until visible colonies of cells resistant to blasticidin were formed.
Blasticidin resistant cells stably expressing WT STING were further transfected with […] plasmid following the same procedure as described above. The transfected cells were selected for the resistance to 300 μg/mL hygromycin (cat. #. 10687010, ThermoFisher, Waltham, USA) in DMEM with high glucose containing 10% heat inactivated FBS, […] blasticidin, 0.06 mg/ml Penicillin G and 0.1 mg/ml Streptomycin Sulfate. Homogeneous culture of stably double transfected cells was prepared by limiting dilution of cells in 96 well plates and wells with cells were selected that originated from a single cell. These cells were expanded, and expression of WT STING was confirmed by western blot using monoclonal mouse anti STING antibodies (cat. #. MAB7169, 1:1000 dilution; […] cat. #. HAF007, 1:2000 dilution, both from R&D Systems, Minneapolis, USA), and by induction of firefly luciferase expression in the presence of 50 μM STING agonist 2′3′ cGAMP (cat. # tlrl-nacga23, InvivoGen, San Diego, USA). Genomic DNA from the transfected cells was amplified with primers pUNO1_Seq_F ([…]) (SEQ ID NO:3) and pUNO1_Seq_R ([…]) (SEQ ID NO:4) that were complementary to pUNO1 plasmid and the presence of WT STING gene in the transfected cells was confirmed by DNA sequencing.
293T wtSTING-FL cells were seeded at density of 250,000 cells per cm^2 onto 96 well poly-D-lysine coated plates in 100 μl DMEM with high glucose supplemented with 10% heat inactivated FBS. […]
(In general: In a reporter assay the amount or activity of a reporter protein is the signal.)

[1] abbreviates: read-out: Digitonin assay EC50 WT STING.

Like-named read-outs stand apart in the source and are kept apart here.

WT STING, sequence (Q86WV6 whole entry H232R): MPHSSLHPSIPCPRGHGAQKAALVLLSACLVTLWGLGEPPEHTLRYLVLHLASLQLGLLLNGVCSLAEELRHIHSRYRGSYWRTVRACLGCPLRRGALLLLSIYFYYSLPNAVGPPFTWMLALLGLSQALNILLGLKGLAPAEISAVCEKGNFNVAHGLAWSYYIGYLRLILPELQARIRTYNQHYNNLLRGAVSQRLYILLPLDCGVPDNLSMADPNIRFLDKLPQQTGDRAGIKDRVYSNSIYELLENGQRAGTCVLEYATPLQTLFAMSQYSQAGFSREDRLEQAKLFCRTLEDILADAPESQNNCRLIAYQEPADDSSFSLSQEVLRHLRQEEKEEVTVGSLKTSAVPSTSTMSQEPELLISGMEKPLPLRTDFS

For orientation: EC50 means the concentration that produces a half-maximal response. `Nc1nc2c(ncn2[C@@H]2C[C@@H]3COP(=O)(O)OC4C(N)[C@H](n5cnc6c(N)ncnc65)O[C@@H]4COP(=O)(O)OC2C3O)c(=O)[nH]1` (stereo partly drawn) [Compound 109, (6R,8R,15R,17R)-9-amino-17-(2-amino-6-oxo-6,9-dihydro-1H-purin-9-yl)-8-(6-amino-9H-purin-9-yl)-3,12,18-trihydroxy-2,4,7,11,13-pentaoxa-3λ^5,12λ^5-diphosphatricyclo[13.2.1.0^6,10]octadecane-3,12-dione]: under setting [1], the EC50 was 130 nM.

`CSc1nc(N)nc2c1ncn2[C@@H]1O[C@@H]2COP(=O)(O)OC3C(O)[C@@H](COP(=O)(O)OC2C1O)C[C@H]3n1cnc2c(=O)[nH]c(N)nc21` (stereo partly drawn) [Compound 112, (6R,8R,15R,17R)-8-[2-amino-6-(methylsulfanyl)-9H-purin-9-yl]-17-(2-amino-6-oxo-6,9-dihydro-1H-purin-9-yl)-3,9,12,18-tetrahydroxy-2,4,7,11,13-pentaoxa-3λ^5,12λ^5-diphosphatricyclo[13.2.1.0^6,10]octadecane-3,12-dione]: the EC50 under setting [1] amounted to 15100 nM.

As for `Nc1ncnc2c1ncn2[C@@H]1O[C@@H]2COP(=O)(S)O[C@@H]3[C@H](F)[C@@H](COP(=O)(S)O[C@H]2[C@H]1F)C[C@H]3n1cnc2c(=O)[nH]cnc21` (single isomer, unassigned) [Compound 128c], the EC50 under setting [1] was 60 nM.

Regarding `Cc1cn([C@@H]2O[C@@H]3COP(=O)(O)OC4C(O)[C@@H](COP(=O)(O)OC3C2O)C[C@H]4n2cnc3c(=O)[nH]c(N)nc32)c2ncnc(N)c12` (stereo partly drawn) [Compound 113, (6R,8R,15R,17R)-8-{4-amino-5-methyl-7H-pyrrolo[2,3-d]pyrimidin-7-yl}-17-(2-amino-6-oxo-6,9-dihydro-1H-purin-9-yl)-3,9,12,18-tetrahydroxy-2,4,7,11,13-pentaoxa-3λ^5,12λ^5-diphosphatricyclo[13.2.1.0^6,10]octadecane-3,12-dione], the EC50 under setting [1] turned out to be 120 nM.

With `Nc1nc(N)c2ncn([C@@H]3O[C@@H]4COP(=O)(O)OC5C(O)[C@@H](COP(=O)(O)OC4C3F)C[C@H]5n3cnc4c(=O)[nH]c(N)nc43)c2n1` (stereo partly drawn) [Compound 117, (6R,8R,15R,17R)-17-(2-amino-6-oxo-6,9-dihydro-1H-purin-9-yl)-8-(2,6-diamino-9H-purin-9-yl)-9-fluoro-3,12,18-trihydroxy-2,4,7,11,13-pentaoxa-3λ^5,12λ^5-diphosphatricyclo[13.2.1.0^6,10]octadecane-3,12-dione], the EC50 under setting [1] is 50 nM.

`Nc1ncnc2c1ncn2[C@@H]1O[C@@H]2COP(=O)(O)O[C@@H]3[C@H](F)[C@@H](COP(=O)(O)O[C@H]2[C@H]1F)C[C@H]3n1cnc2c(=O)[nH]cnc21` [Compound 127]: under setting [1], the EC50 was 30 nM.

On to `Cc1cn([C@@H]2O[C@@H]3COP(=O)(O)OC4C(O)[C@@H](COP(=O)(O)OC3C2O)C[C@H]4n2cnc3c(=O)[nH]cnc32)c2ncnc(N)c12` (stereo partly drawn) [Compound 123, (6R,8R,15R,17R)-8-{4-amino-5-methyl-7H-pyrrolo[2,3-d]pyrimidin-7-yl}-3,9,12,18-tetrahydroxy-17-(6-oxo-6,9-dihydro-1H-purin-9-yl)-2,4,7,11,13-pentaoxa-3λ^5,12λ^5-diphosphatricyclo[13.2.1.0^6,10]octadecane-3,12-dione], for which, under setting [1], the EC50 is 300 nM.

As for `Nc1nc2c(ncn2[C@@H]2C[C@@H]3COP(=O)(O)OC4C(O)[C@H](n5cnc6c(=O)[nH]cnc65)O[C@@H]4COP(=O)(O)OC2C3O)c(=O)[nH]1` (stereo partly drawn) [Compound 104, (6R,8R,15R,17R)-17-(2-amino-6-oxo-6,9-dihydro-1H-purin-9-yl)-3,9,12,18-tetrahydroxy-8-(6-oxo-6,9-dihydro-1H-purin-9-yl)-2,4,7,11,13-pentaoxa-3λ^5,12λ^5-diphosphatricyclo[13.2.1.0^6,10]octadecane-3,12-dione], under setting [1], the 50% effective concentration (EC50) came to 100 nM.

`Nc1ncc2ncn([C@@H]3O[C@@H]4COP(=O)(O)OC5C(O)[C@@H](COP(=O)(O)OC4C3O)C[C@H]5n3cnc4c(=O)[nH]cnc43)c2n1` (stereo partly drawn) [Compound 119, (6R,8R,15R,17R)-8-(2-amino-9H-purin-9-yl)-3,9,12,18-tetrahydroxy-17-(6-oxo-6,9-dihydro-1H-purin-9-yl)-2,4,7,11,13-pentaoxa-3λ^5,12λ^5-diphosphatricyclo[13.2.1.0^6,10]octadecane-3,12-dione]: the EC50 under setting [1] amounted to 400 nM.

`CSc1ncnc2c1ncn2[C@@H]1O[C@@H]2COP(=O)(O)OC3C(O)[C@@H](COP(=O)(O)OC2C1O)C[C@H]3n1cnc2c(=O)[nH]c(N)nc21` (stereo partly drawn) [Compound 110, (6R,8R,15R,17R)-17-(2-amino-6-oxo-6,9-dihydro-1H-purin-9-yl)-3,9,12,18-tetrahydroxy-8-[6-(methylsulfanyl)-9H-purin-9-yl]-2,4,7,11,13-pentaoxa-3λ^5,12λ^5-diphosphatricyclo[13.2.1.0^6,10]octadecane-3,12-dione]: the EC50 under setting [1] turned out to be 230 nM.

As to `Nc1nc(N)c2ncn([C@@H]3O[C@@H]4COP(=O)(O)OC5C(O)[C@@H](COP(=O)(O)OC4C3O)C[C@H]5n3cnc4c(=O)[nH]c(N)nc43)c2n1` (stereo partly drawn) [Compound 105, (6R,8R,15R,17R)-17-(2-amino-6-oxo-6,9-dihydro-1H-purin-9-yl)-8-(2,6-diamino-9H-purin-9-yl)-3,9,12,18-tetrahydroxy-2,4,7,11,13-pentaoxa-3λ^5,12λ^5-diphosphatricyclo[13.2.1.0^6,10]octadecane-3,12-dione], the EC50 under setting [1] was found to be 500 nM.

On to `Nc1nc2c(ncn2[C@@H]2C[C@@H]3COP(=O)(O)OC4C(O)[C@H](n5nnc6c(N)ncnc65)O[C@@H]4COP(=O)(O)OC2C3O)c(=O)[nH]1` (stereo partly drawn) [Compound 116, (6R,8R,15R,17R)-8-{7-amino-3H-[1,2,3]triazolo[4,5-d]pyrimidin-3-yl}-17-(2-amino-6-oxo-6,9-dihydro-1H-purin-9-yl)-3,9,12,18-tetrahydroxy-2,4,7,11,13-pentaoxa-3λ^5,12λ^5-diphosphatricyclo[13.2.1.0^6,10]octadecane-3,12-dione], for which the concentration giving a half-maximal response (EC50) under setting [1] stood at 1700 nM.

On to `Nc1nc2c(ncn2[C@@H]2C[C@@H]3COP(=O)(O)OC4C(O)[C@H](n5cnc6c(N)ncnc65)O[C@@H]4COP(O)(=S)OC2C3O)c(=O)[nH]1` (stereo partly drawn) [Compound 101, 2-amino-9-[(6R,8R,15R,17R)-8-(6-amino-9H-purin-9-yl)-3,9,12,18-tetrahydroxy-12-oxo-3-sulfanylidene-2,4,7,11,13-pentaoxa-3λ^5,12λ^5-diphosphatricyclo[13.2.1.0^6,10]octadecan-17-yl]-6,9-dihydro-1H-purin-6-one], for which the midpoint of the response (Digitonin assay EC50 WT STING), the EC50, lay at 10 nM.

Regarding `Nc1ncnc2c1ncn2[C@@H]1O[C@@H]2COP(=O)(S)O[C@@H]3[C@H](F)[C@@H](COP(=O)(S)O[C@H]2[C@H]1F)C[C@H]3n1cnc2c(=O)[nH]cnc21` (single isomer, unassigned) [Compound 128b], the EC50 under setting [1] came to 400 nM.

For the compound `Nc1ncnc2c1ncn2[C@@H]1O[C@@H]2COP(=O)(O)O[C@@H]3[C@@H](F)[C@@H](COP(=O)(O)O[C@H]2[C@H]1O)C[C@H]3n1cnc2c(=O)[nH]cnc21` [Compound 126, (1S,6R,8R,9R,10S,15R,17R,18S)-8-(6-amino-9H-purin-9-yl)-18-fluoro-3,9,12-trihydroxy-17-(6-oxo-6,9-dihydro-1H-purin-9-yl)-2,4,7,11,13-pentaoxa-3λ^5,12λ^5-diphosphatricyclo[13.2.1.0^6,10]octadecane-3,12-dione], the EC50 under setting [1] turned out to be 50 nM.

The values above are taken from patent publication US20190359645A1, “2'3'-CYCLIC DINUCLEOTIDES COMPRISING CARBOCYCLIC NUCLEOTIDE” (Institute of Organic Chemistry and Biochemistry ASCR, V.V.I., priority 2018, published 2019).
